According to the SangsterLogP compilation:

Experiments:
[1] = method code SF-CR, from PMID: 582926
[2] = method code SF-RC, from PMID: 582926
[3] = method code SF-AS, from PMID: 582926

| Structure (SMILES) | logP [1] | logP [2] | other results |
| --- | --- | --- | --- |
| CO[C@H]1[C@H](O)[C@H](O[C@H]2CC[C@@]3(C=O)[C@H](CC[C@@H]4[C@@H]3CC[C@]3(C)[C@@H](C5=CC(=O)OC5)CC[C@]43O)C2)O[C@@H](C)[C@@H]1O | 1.05 | – | – |
| CC1O[C@H](O[C@H]2CC[C@]3(CO)C4CC[C@]5(C)[C@@H](C6=CC(=O)OC6)CC[C@]5(O)C4CC[C@]3(O)C2)C(O)C(O)[C@@H]1O (stereo not given in full) | – | -0.62 | – |
| C[C@H]1O[C@@H](O[C@H]2[C@@H](O)C[C@H](O[C@H]3CC[C@@]4(C)[C@@H](CC[C@@H]5[C@@H]4CC[C@]4(C)[C@@H](C6=CC(=O)OC6)CC[C@]54O)C3)O[C@@H]2C)C[C@H](O)[C@@H]1O | – | 2.15 | – |
| CO[C@H]1C[C@H](O[C@H]2CC[C@@]3(C)[C@H](CC[C@@H]4[C@@H]3CC[C@]3(C)[C@@H](C5=CC(=O)OC5)CC[C@]43O)C2)O[C@@H](C)[C@@H]1O | – | 2.37 | – |
| CO[C@H]1C[C@H](O[C@H]2CCC3(CO)C4CCC5(C)[C@@H](C6=CC(=O)OC6)CCC5(O)C4CCC3(O)C2)O[C@H](C)[C@H]1O (stereo not given in full) | 0.56 | – | – |
| COC1CC(OC2CC[C@@]3(C)[C@H](CC[C@@H]4[C@H]3CC[C@]3(C)C(C5=CC(=O)OC5)C(OC(C)=O)C[C@]43O)C2)OC(C)C1O (stereo not given in full) | 2.26 | – | – |
| CC(=O)O[C@H]1C[C@H](O[C@H]2CC[C@@]3(C)[C@H](CC[C@@H]4[C@@H]3C[C@@H](O)[C@]3(C)[C@@H](C5=CC(=O)OC5)CC[C@]43O)C2)O[C@H](C)[C@H]1O[C@H]1C[C@H](OC(C)=O)[C@H](O[C@H]2C[C@H](O)[C@H](O)[C@@H](C)O2)[C@@H](C)O1 | 2.45 | – | – |
| C[C@H]1O[C@@H](O[C@H]2CC[C@@]3(C)[C@H](CC[C@@H]4[C@@H]3CC[C@]3(C)[C@@H](C5=CC(=O)OC5)CC[C@]43O)C2)C[C@H](O)[C@@H]1O[C@H]1C[C@H](O)[C@H](O[C@H]2C[C@H](O)[C@H](O[C@@H]3O[C@H](C(=O)O)[C@@H](O)[C@H](O)[C@H]3O)[C@@H](C)O2)[C@@H](C)O1 | – | -1.1 | – |
| CO[C@H]1CC(O[C@H]2CC[C@@]3(C)[C@H](CC[C@@H]4[C@@H]3CC[C@]3(C)[C@@H](C5=CC(=O)OC5)[C@@H](OC(C)=O)C[C@]43O)C2)O[C@@H](C)[C@@H]1OC(C)=O (stereo not given in full) | – | 2.95 | – |
| CC(=O)O[C@H]1[C@@H](OC(C)=O)C[C@H](O[C@H]2[C@@H](OC(C)=O)C[C@H](O[C@H]3[C@@H](OC(C)=O)C[C@H](O[C@H]4CC[C@@]5(C)[C@H](CC[C@@H]6[C@@H]5CC[C@]5(C)[C@@H](C7=CC(=O)OC7)[C@@H](OC(C)=O)C[C@]65O)C4)O[C@@H]3C)O[C@@H]2C)O[C@@H]1C | 2.85 | – | – |
| CC(=O)OC1C[C@@H](OC2C(O)C[C@@H](OC3C(O)C[C@@H](OC4CC[C@@]5(C)[C@H](CC[C@H]6[C@H]5CC(O)[C@]5(C)C(C7=CC(=O)OC7)CC[C@]65O)C4)OC3C)OC2C)OC(C)C1O[C@H]1OC(CO)C(O)C(O)C1O (stereo not given in full) | – | 0.07 | – |
| CC(=O)OC1CC2(O)C3CCC4CC(O)CCC4(C)C3CCC2(C)C1C1=CC(=O)OC1 (stereo not given) | – | 1.93 | – |
| C[C@H]1O[C@@H](O[C@H]2[C@@H](O)C[C@H](O[C@H]3[C@@H](O)C[C@H](O[C@H]4CC[C@@]5(C)[C@H](CC[C@@H]6[C@@H]5CC[C@]5(C)[C@@H](C7=CC(=O)OC7)[C@@H](O)C[C@]65O)C4)O[C@@H]3C)O[C@@H]2C)C[C@H](O)[C@@H]1O | 1.66 | – | – |
| CC1OC(OC2CCC3(CO)C4CCC5(C)C6(C=CC(=O)OC6)CCC5(O)C4CCC3(O)C2)CC(O)C1O (stereo not given) | 0.15 | – | – |
| CO[C@H]1[C@@H](O)C[C@H](O[C@H]2[C@@H](O)C[C@H](O[C@H]3[C@@H](O)C[C@H](O[C@H]4CC[C@@]5(C)[C@H](CC[C@@H]6[C@@H]5C[C@@H](O)[C@]5(C)[C@@H](C7=CC(=O)OC7)CC[C@]65O)C4)O[C@@H]3C)O[C@@H]2C)O[C@@H]1C | – | 1.73 | – |
| C[C@@H]1O[C@@H](O[C@H]2CC[C@]3(C=O)[C@H]4CC[C@]5(C)[C@@H](C6=CC(=O)OC6)CC[C@]5(O)[C@@H]4CC[C@]3(O)C2)[C@H](O)[C@H](O)[C@H]1O | -0.48 | – | – |
| CC1OC(OC2CCC3(C)C(CCC4C3CCC3(C)C(C5=CC(=O)OC5)CCC43O)C2)CC(O)C1O (stereo not given) | – | 2.48 | – |
| CC(=O)OC1CC(OC2C(O)CC(OC3C(O)CC(OC4CCC5(C)C(CCC6C5CC(O)C5(C)C(C7=CC(=O)OC7)CCC65O)C4)OC3C)OC2C)OC(C)C1O (stereo not given) | – | 1.97 | – |
| CC1OC(OC2CCC3(C)C(CCC4C3CC(O)C3(C)C(C5=CC(=O)OC5)CCC43O)C2)CC(O)C1OC1CC(O)C(OC2CC(O)C(OC3OC(C(=O)O)C(O)C(O)C3O)C(C)O2)C(C)O1 (stereo not given) | – | -1.77 | – |
| CC12CCC(OC3OC(CO)C(O)C(O)C3O)CC1CCC1C2CCC2(C)C(C3=CC(=O)OC3)CCC12O (stereo not given) | -0.64 | – | – |
| CC1OC(OC2CCC3(C)C(CCC4C3CCC3(C)C(C5=CC(=O)OC5)C(O)CC43O)C2)CC(O)C1O (stereo not given) | – | 1.76 | – |
| CC(=O)OC1CC(OC2CCC3(C)C(CCC4C3CC(O)C3(C)C(C5=CC(=O)OC5)CCC43O)C2)OC(C)C1OC1CC(O)C(OC2CC(O)C(O)C(C)O2)C(C)O1 (stereo not given) | 1.71 | – | – |
| CC(=O)O[C@H]1C[C@H](O[C@H]2[C@@H](O)C[C@H](O[C@H]3[C@@H](O)C[C@H](O[C@H]4CC[C@@]5(C)[C@@H](CC[C@@H]6[C@H]5CC[C@]5(C)[C@@H](C7=CC(=O)OC7)CC[C@]65O)C4)O[C@@H]3C)O[C@@H]2C)O[C@H](C)[C@H]1O[C@@H]1O[C@H](CO)[C@@H](O)[C@H](O)[C@H]1O | – | 1.23 | – |
| C[C@H]1O[C@@H](O[C@H]2CC[C@]3(C=O)[C@H]4CC[C@]5(C)[C@@H](C6=CC(=O)OC6)CC[C@]5(O)[C@@H]4CC[C@]3(O)C2)C[C@H](O)[C@@H]1O | 0.3 | – | – |
| CO[C@H]1CC(O[C@H]2CC[C@@]3(C)[C@H](CC[C@@H]4[C@@H]3CC[C@]3(C)[C@@H](C5=CC(=O)OC5)[C@@H](OC(C)=O)C[C@]43O)C2)O[C@H](C)C1=O (stereo not given in full) | – | 1.65 | – |
| C[C@]12CC[C@H](O)C[C@H]1CC[C@H]1C3=CC[C@H](C4=CC(=O)OC4)[C@@]3(C)CC[C@@H]12 | – | 2.52 | – |
| CO[C@H]1[C@H](O)[C@H](O[C@H]2CC[C@@]3(C)[C@H](CC[C@@H]4[C@@H]3CC[C@]3(C)[C@@H](C5=CC(=O)OC5)CC[C@]43O)C2)O[C@@H](C)[C@@H]1O | 2.1 | – | – |
| C[C@@H]1O[C@@H](O[C@H]2CC[C@@]3(C)[C@H](CC[C@@H]4[C@@H]3CC[C@]3(C)[C@@H](C5=CC(=O)OC5)CC[C@]43O)C2)[C@H](O)[C@H](O)[C@H]1O | 2.1 | – | – |
| CC(=O)O[C@H]1C[C@]2(O)[C@@H]3CC[C@@H]4C[C@@H](O[C@H]5C[C@H](O)[C@H](O[C@H]6C[C@H](O)[C@H](O[C@H]7C[C@H](O)[C@H](O)[C@@H](C)O7)[C@@H](C)O6)[C@@H](C)O5)CC[C@]4(C)[C@H]3CC[C@]2(C)[C@H]1C1=CC(=O)OC1 | 2.15 | – | – |
| C[C@@H]1O[C@@H](O[C@@H]2C=C3CC[C@@H]4[C@H](CC[C@]5(C)[C@@H](c6ccc(=O)oc6)CC[C@]45O)[C@@]3(C)CC2)[C@H](O)[C@H](O)[C@H]1O | – | – | logP [3]: 2.48 |
